The values that follow come from paper PMC8224453, “A New PqsR Inverse Agonist Potentiates Tobramycin Efficacy to Eradicate Pseudomonas aeruginosa Biofilms” (Advanced Science, 2021).

A short description of series [1]: Mouse MTD, acute single dose toxicity i.v. It is filed as in vivo. The following applies: mice. How it is done: Pyruvate. Passages between 35 and 55 were used, medium was changed every 2-3 days. For experiments, cells were harvested using Trypsin/EDTA and seeded on Transwell® inserts 3460 at a density of 1∙105 cells. Cells were grown at air-liquid interface beginning day 3 and used for Transport studies on day 11-13. TEER values exceeded 300 Ω∙cm2 before beginning Transport studies. For experiments, Krebs-Ringer solution with 1% BSA was used and cells were accommodated to the buffer for at least 1h with no decrease in TEER. 200 µL samples were taken in regular intervals from the apical side (time intervals 0, 20, 40, 60, 90, 120, 180, 240 minutes) and replenished with fresh buffer. TEER was monitored during the experiment and epithelial barriers were considered compromised if the TEER fell below 300 during 4 h of experiment duration. […] 50 µL of sample was mixed with 150 µL of ice-cold acetonitrile containing internal standard diphenhydramine (1 µM) and the concentration of compound was analyzed with LC-MS/MS. […]
The in vivo tolerability study was performed on ten-week old female C57BL/6N mice. […] Mice behavior and body weight were monitored over 24 h period. At 24 h post-injection, the mice were euthanized, lungs were collected, and the blood leukocytes as well as the absolute leukocytes (including segented, lymphocytes, monocytes and eosinophiles) were counted to access the tolerability. […]

Series [2] is described as follows: Metabolic stability, guinea pig liver S9. It counts as in vitro ADME. Conditions: pooled liver S9 fraction, Table S4, read-out: t1/2 guinea pig liver S9. How it is done:
subtraction and plotted using GraphPad Prism 8.4.2 (GraphPad Software, San Diego, CA, […]
USA). Solubility (S) was determined based on the First X value of AUC function using a […]
For the evaluation of combined phase I and phase II metabolic stability, the compound (1 μM) was incubated with 1 mg/mL pooled liver S9 fraction from the respective species (Xenotech), […]
2 mM NADPH, 1 mM UDPGA, 10 mM MgCl2, 5 mM GSH and 0.1 mM PAPS at 37 °C for […]
0, 5, 15, 30 or 60 min. The metabolic stability of Testosterone (1 μM) and verapamil (1 μM) […]
were determined in parallel to confirm the enzymatic activity of the S9 fraction. The […]
incubation was stopped by precipitation of S9 enzymes with 2 volumes of cold acetonitrile […]
containing internal standard (750 nM Diphenhydramine). Samples were stored on ice for 10 […]
min and precipitated protein was removed by centrifugation (10 min, 4 °C, 17,000 g).
Concentration of the remaining test compound at the different time points was analyzed by […]
LC-MS/MS (TSQ Quantum Access MAX, Thermo Fisher, Dreieich, Germany) and used to […]
determine half-life (t1/2). Stability of compound 4 in further S9 fractions are summarized in […]
Table S4. Metabolic stability studies in various S9 fractions. […]
guinea pig liver S9 92.5 ± 5.4
5.6. Permeability studies
Permeability of compound 4 and 17 was assessed in vitro with Calu-3 HTB-55 cell line (ATCC). […]

As for `FC(F)(F)c1cc(NCc2cn(-c3ccc(Oc4ccccc4)cc3)nn2)ccn1` [Compound 4], the “test dosing up to which no test item related clinical symptoms were observed” value in series [1] (i.v. single dose, after 24 h) is ≥ 60 mg/kg. In addition, in series [1] (mouse, in vivo, iv, i.v., read-out: dose up to which well tolerated (maximum tolerated dose study)), the MTD at 24 h is ≥ 60 mg/kg. The half-life at 1 μM in series [2] was 1.54 ± 0.09 h.
